Assay results from patent US20240190916A1, “NOVEL PEPTIDE” (HYSENSBIO, priority 2022, published 2024).

Tested on: DSPP gene
Experiment: DSPP mRNA level by real-time PCR in human dental pulp cells
Type: cell-based
Settings: peptide 10 ug/ml, compared to untreated control
Procedure: Human pulp tissue cells were isolated from wisdom teeth of 10 adults (18-22 years old) at Seoul National University Dental Hospital. Specifically, all experiments were performed with the patient's consent after approval from the hospital's Institutional Review Board, and wisdom teeth are cut according to a method of Jung H S et al (J Mol Histol. (2011)), exposing the pulp and isolating the pulp with forceps. The isolated pulp was minced on both sides, placed in a 60 mm dish, covered with a cover slip, and then cultured in Dulbecco's Modified Eagle medium. It is known that human dental pulp cells can differentiate into odontoblasts, osteoblasts, cementoblasts and periodontal ligament cells under various conditions (Tissue Eng Part A. 2014 April; 20(7-8): 1342-51).
(§1) Total RNA of human dental pulp cells and mesenchymal stem cells was isolated using a TRIzol reagent. cDNA was synthesized using 2 μg of total RNA, 1 μl of reverse transcriptase, and 0.5 μg of oligo (dT). The synthesized cDNA was used for real-time polymerase chain reaction. The real-time polymerase chain reaction was performed in ABI PRISM 7500 sequence detection system (Applied Biosystems) using SYBR GREEN PCR Master Mix (Takara, Japan). The real-time polymerase chain reaction was performed at 94° C., 1 min; 95° C., 15 sec-60° C., 34 sec was performed under the condition of repeating 40 cycles. An analysis of the results was evaluated using a comparative cycle threshold (CT) method, and primer base sequences are listed in Table 9.
The effect of each group of peptides on DSPP mRNA expression was confirmed by real-time PCR (Table 10).

First: KYKAKKKNYK [SEQ ID NO: 1]
Second: KYKARRRSYK [SEQ ID NO: 15]
The “mRNA level of DSPP gene, Average” value of the first is higher: 9.028 fold for the first, 3.620 fold for the second.

Going from KYRAKKKNYK [SEQ ID NO: 17] to KYRAKKKSYK [SEQ ID NO: 25], the “mRNA level of DSPP gene, Average” value falls from 2.192 fold to 1.919 fold.

Going from KYRAKKRNYK [SEQ ID NO: 18] to KYRAKKRSYK [SEQ ID NO: 26], the “mRNA level of DSPP gene, Average” value falls from 2.061 fold to 1.811 fold.

First: KYRAKRKNYK [SEQ ID NO: 19]
Second: KYRAKRKSYK [SEQ ID NO: 27]
The “mRNA level of DSPP gene, Average” value of the first is higher: 1.772 fold for the first, 1.620 fold for the second.

First: KYRAKRRNYK [SEQ ID NO: 21]
Second: KYRAKRRSYK [SEQ ID NO: 29]
The “mRNA level of DSPP gene, Average” value of the first is higher: 2.167 fold for the first, 2.125 fold for the second.

Going from KYRARKKNYK [SEQ ID NO: 20] to KYRARKKSYK [SEQ ID NO: 28], the “mRNA level of DSPP gene, Average” value rises from 1.702 fold to 2.311 fold.

First: KYRARKRNYK [SEQ ID NO: 24]
Second: KYRARKRSYK [SEQ ID NO: 32]
The “mRNA level of DSPP gene, Average” value of the first is higher: 2.021 fold for the first, 1.861 fold for the second.

Compared with KYRARRKNYK [SEQ ID NO: 22], KYRARRKSYK [SEQ ID NO: 30] is lower in “mRNA level of DSPP gene, Average” value: 2.005 fold for the first, 1.836 fold for the second.

Compared with KYRARRRNYK [SEQ ID NO: 23], KYRARRRSYK [SEQ ID NO: 31] is lower in “mRNA level of DSPP gene, Average” value: 1.915 fold for the first, 1.620 fold for the second.

Tested on: BSP gene
Experiment: BSP mRNA level by real-time PCR in human-derived mesenchymal stem cells
Type: cell-based
Settings: compared to untreated control
Procedure: (§2) It was cultured at 37° C. in humid air containing 5% CO2 and used for the experiment. Human mesenchymal stem cells (hBMSCs) were purchased from Lonza (LONZA, Switzerland) and used. hBMSCs were cultured in a-MEM (Invitrogen) medium supplemented with 10% heat-inactivated bovine serum.
as §1
(§3) BSP and DMP1 genes are used as markers for differentiation of osteoblasts and cementoblasts, and are known as important genes for calcification of a bone and cementum. The effects of each group of peptides on BSP and DMP1 mRNA expression were confirmed by a real-time PCR (Tables 11 and 12).

First: KYKAKKKNYK [SEQ ID NO: 1]
Second: KYKARRRSYK [SEQ ID NO: 15]
The “mRNA level of BSP gene, BSP gene expression, Average” value (“mRNA level of BSP gene” below) of the first is higher: 2.892 fold for the first, 2.119 fold for the second.

Compared with KYRAKKKNYK [SEQ ID NO: 17], KYRAKKKSYK [SEQ ID NO: 25] is lower in “mRNA level of BSP gene” value: 2.392 fold for the first, 2.152 fold for the second.

First: KYRAKKRNYK [SEQ ID NO: 18]
Second: KYRAKKRSYK [SEQ ID NO: 26]
The “mRNA level of BSP gene” value of the first is higher: 2.316 fold for the first, 2.081 fold for the second.

First: KYRAKRKNYK [SEQ ID NO: 19]
Second: KYRAKRKSYK [SEQ ID NO: 27]
The “mRNA level of BSP gene” value of the first is higher: 2.537 fold for the first, 2.195 fold for the second.

Going from KYRAKRRNYK [SEQ ID NO: 21] to KYRAKRRSYK [SEQ ID NO: 29], the “mRNA level of BSP gene” value falls from 1.995 fold to 1.978 fold.

Compared with KYRARKKNYK [SEQ ID NO: 20], KYRARKKSYK [SEQ ID NO: 28] is lower in “mRNA level of BSP gene” value: 2.91 fold for the first, 2.084 fold for the second.

Compared with KYRARKRNYK [SEQ ID NO: 24], KYRARKRSYK [SEQ ID NO: 32] is lower in “mRNA level of BSP gene” value: 2.276 fold for the first, 1.893 fold for the second.

Going from KYRARRKNYK [SEQ ID NO: 22] to KYRARRKSYK [SEQ ID NO: 30], the “mRNA level of BSP gene” value rises from 1.893 fold to 2.222 fold.

Compared with KYRARRRNYK [SEQ ID NO: 23], KYRARRRSYK [SEQ ID NO: 31] is lower in “mRNA level of BSP gene” value: 2.037 fold for the first, 1.798 fold for the second.

Tested on: DMP1 gene
Experiment: DMP1 mRNA level by real-time PCR in human-derived mesenchymal stem cells
Type: cell-based
Settings: compared to untreated control
Procedure: as §2, §1, §3

Going from KYKAKKKNYK [SEQ ID NO: 1] to KYKARRRSYK [SEQ ID NO: 15], the “mRNA level of DMP1 gene, DMP1 gene expression, Average” value (“mRNA level of DMP1 gene” below) falls from 11.401 fold to 8.991 fold.

Going from KYRAKKKNYK [SEQ ID NO: 17] to KYRAKKKSYK [SEQ ID NO: 25], the “mRNA level of DMP1 gene” value falls from 9.400 fold to 9.055 fold.

Compared with KYRAKKRNYK [SEQ ID NO: 18], KYRAKKRSYK [SEQ ID NO: 26] is lower in “mRNA level of DMP1 gene” value: 9.161 fold for the first, 8.991 fold for the second.

Compared with KYRAKRKNYK [SEQ ID NO: 19], KYRAKRKSYK [SEQ ID NO: 27] is lower in “mRNA level of DMP1 gene” value: 8.999 fold for the first, 8.537 fold for the second.

Going from KYRAKRRNYK [SEQ ID NO: 21] to KYRAKRRSYK [SEQ ID NO: 29], the “mRNA level of DMP1 gene” value rises from 9.100 fold to 9.525 fold.

Compared with KYRARKKNYK [SEQ ID NO: 20], KYRARKKSYK [SEQ ID NO: 28] is higher in “mRNA level of DMP1 gene” value: 8.537 fold for the first, 9.198 fold for the second.

Compared with KYRARKRNYK [SEQ ID NO: 24], KYRARKRSYK [SEQ ID NO: 32] is lower in “mRNA level of DMP1 gene” value: 9.333 fold for the first, 8.107 fold for the second.

Going from KYRARRKNYK [SEQ ID NO: 22] to KYRARRKSYK [SEQ ID NO: 30], the “mRNA level of DMP1 gene” value rises from 7.997 fold to 8.683 fold.

Compared with KYRARRRNYK [SEQ ID NO: 23], KYRARRRSYK [SEQ ID NO: 31] is lower in “mRNA level of DMP1 gene” value: 9.105 fold for the first, 9.100 fold for the second.

Tested on: DSP
Experiment: Western blot of DSP protein in human dental pulp cells
Type: cell-based
Settings: 1, 10, and 50 ug, FIG. 3
Procedure: (§4) FIG. 3 is a result of confirming expressions of DSP and BSP proteins by Western blot after treating human dental pulp cells with the novel peptide (SEQ ID NO: 1) in a concentration-dependent manner (1, 10, and 50 ug) to confirm the effect of novel peptides on expressions of marker proteins for differentiation of odontoblasts, osteoblasts and cementoblasts.

With KYKAKKKNYK [SEQ ID NO: 1] the “expression of DSP protein (marker for differentiation of odontoblasts)” value was “increased in a concentration-dependent manner”.

Tested on: BSP
Experiment: Western blot of BSP protein in human dental pulp cells
Type: cell-based
Settings: 1, 10, and 50 ug, FIG. 3
Procedure: as §4

With KYKAKKKNYK [SEQ ID NO: 1] the “expression of BSP protein (marker for differentiation of osteoblasts and cementoblasts)” value was “increased in a concentration-dependent manner”.

Tested on: damaged dentin of beagle dog's teeth
Experiment: Dentin regeneration in dentin damage model
Type: in vivo
Settings: 10 ug per tooth, 3 weeks after application, vs control group, FIG. 4
Procedure: Three beagle dogs (12-16 kg; […]) were anesthetized by inhalation of Geloran, intravenously injected with Zoletil (5 mg/kg) and Xylazine (0.2-0.5 mg/kg), and then treated with Lidocaine (Lidocaine 2% with 1:80,000 epinephrine). After damaging the dentin of the premolars and molar teeth in the mandible of the beagle dog using a dental bur, 10 ug of SEQ ID NO: 1 peptide of group 1 was treated per tooth. After 6 weeks, a beagle dog was sacrificed by administering an excessive amount (90-120 mg/kg) of pentobarbital. The tooth of the beagle dog was extracted, fixed with 10% formalin, calcium was removed by adding 5% formic acid, molded, and embedded in paraffin, and then a tissue section with a thickness of 5 μm were obtained, a obtained tissue section was stained with hematoxylin and eosin, and then analyzed using by an optical microscope equipped with a digital camera (LEICA ICC50 camera, Germany).
FIG. 4 is the result of histological evaluation 3 weeks after application of 10 ug of the novel peptide (SEQ ID NO: 1) after damaging the dentine of beagle dog's teeth in order to confirm that the novel peptide induces physiological dentin regeneration in a animal model of damaged dentin.

For KYKAKKKNYK [SEQ ID NO: 1], the “physiological dentin regeneration, histological evaluation” value was “physiological dentin was formed in the lower part the damaged dentine”.

Tested on: human dental pulp cells (hDPCs) transplanted into the subcutaneous tissue of mice with impaired immune systems
Experiment: In vivo transplantation of hDPCs with HA/TCP and histological analysis
Settings: 10 ug peptide with hDPCs, 6 weeks after transplantation, vs hDPCs-only control, FIG. 6
Procedure: Human dental pulp cells (hDPCs) were isolated and used for in vivo transplantation experiments. hDPCs (2×10^6 cells) were mixed with 100 mg of hydroxy apatite/tricalcium phosphate (HA/TCP) ceramic powder (Zimmer, USA) alone or along with peptides (10 μg) or 0.5% fibrin gel, and then transplanted into mice (NIH-bg-nu-xid; Harlan Laboratories, Indianapolis, IN) with damaged immune systems for 6 and 12 weeks. Thereafter, samples were harvested, fixed in 4% paraformaldehyde, decalcified in 10% EDTA (pH 7.4), embedded in paraffin, and stained with hematoxylin-eosin (H-E) (Vector Labs).

With KYKAKKKNYK [SEQ ID NO: 1] the “periodontal ligament formation, hematoxylin-eosin histology” value was “periodontal ligament fiber bundle (black triangle) were formed”.

Same assay, conditions: 10 ug peptide with hDPCs, 12 weeks after transplantation, vs hDPCs-only control, FIG. 5

KYKAKKKNYK [SEQ ID NO: 1] was tested, and the “proportion of hard tissue formation” value was “increased”.

Same assay, conditions: hDPCs with HA/TCP, 12 weeks after transplantation, FIG. 5

With KYKAKKKNYK [SEQ ID NO: 1] the “hard tissue (bone/cementum-like tissue) formation, hematoxylin-eosin histology” value was “more similar hard tissue formation as the BMP-2 treated group compared to the control group”.
